Results from patent US20150307938A1, “METHOD TO IDENTIFY A NOVEL CLASS OF IMMUNOLOGIC ADJUVANTS” (Lancell, L.L.C., priority 2011, published 2015).
Structures can show the parent of a compound that is named as a salt.

How the values were obtained:
Fluzone = system: Fluzone; parameters: species or system C57BL/6 mice; conditions: mouse, in vivo
[1] = system: Murine Skin Dendritic Cells; experiment: Activation of murine skin dendritic cells by DBP vs. DBlT (DC per lymph node, CD86); type: in vivo; conditions: topical treatment
skin = experiment: Affymetrix microarray of skin, DBP-4 hr and analogs vs. untreated; gene selection by log-2 fold change, Wilcoxon, Kendall tau (Tables 8, 9); type: in vivo, mouse

With `CCCCOC(=O)[C@H](O)[C@@H](O)C(=O)OCCCC` [DBlT, dibutyl L tartrate] the “HAI titer / adjuvant effect with the same dose of Fluzone” value (Fluzone) was “almost but not quite as good as DBT had” and the “MFI CD86” value [1] was 634 (126).

With `COC(=O)c1ccccc1C(=O)OC` [DMP, dimethylphthalate] the “Log2 Expression Level” value (skin; gene #1 of Table 8) was 5.82, the “Log2 Expression Level” value (skin; gene #2 of Table 8) was 6.47 and the “Log2 Expression Level” value (skin; gene #3 of Table 8) was 8.83. For the same molecule, the “Log2 Expression Level” value (skin; gene #4 of Table 8) was 8.83, the “Log2 Expression Level” value (skin; gene #5 of Table 8) was 6.08 and the “Log2 Expression Level” value (skin; gene #6 of Table 8) was 6.09. For the same molecule, the “Log2 Expression Level” value (skin; gene #7 of Table 8) was 5.32, the “Log2 Expression Level” value (skin; gene #8 of Table 8) was 6.09 and the “Log2 Expression Level” value (skin; gene #9 of Table 8) was 6.09. For the same molecule, the “Log2 Expression Level” value (skin; gene #10 of Table 8) was 6.09, the “Log2 Expression Level” value (skin; gene #11 of Table 8) was 5.32 and the “Log2 Expression Level” value (skin; gene #12 of Table 8) was 5.32. The “Log2 Expression Level” value (skin; gene #13 of Table 8) was 5.32, the “Log2 Expression Level” value (skin; gene #14 of Table 8) was 4.91 and the “Log2 Expression Level” value (skin; gene #15 of Table 8) was 4.91. For the same molecule, the “Log2 Expression Level” value (skin; gene #16 of Table 8) was 6.50, the “Log2 Expression Level” value (skin; gene #17 of Table 8) was 8.80 and the “Log2 Expression Level” value (skin; gene #18 of Table 8) was 8.80. For the same molecule, the “Log2 Expression Level” value (skin; gene #19 of Table 8) was 8.29, the “Log2 Expression Level” value (skin; gene #20 of Table 8) was 8.26 and the “Log2 Expression Level” value (skin; gene #21 of Table 8) was 7.91. The “Log2 Expression Level” value (skin; gene #22 of Table 8) was 5.99, the “Log2 Expression Level” value (skin; gene #23 of Table 8) was 5.65 and the “Log2 Expression Level” value (skin; gene #24 of Table 8) was 7.33. The “Log2 Expression Level” value (skin; gene #25 of Table 8) was 7.33, the “Log2 Expression Level” value (skin; gene #26 of Table 8) was 7.55 and the “Log2 Expression Level” value (skin; gene #27 of Table 8) was 7.55. For the same molecule, the “Log2 Expression Level” value (skin; gene #28 of Table 8) was 7.55, the “Log2 Expression Level” value (skin; gene #29 of Table 8) was 5.77 and the “Log2 Expression Level” value (skin; gene #30 of Table 8) was 8.30. The “Log2 Expression Level” value (skin; gene #31 of Table 8) was 8.30, the “Log2 Expression Level” value (skin; gene #32 of Table 8) was 8.30 and the “Log2 Expression Level” value (skin; gene #33 of Table 8) was 5.48. For the same molecule, the “Log2 Expression Level” value (skin; gene #34 of Table 8) was 6.50, the “Log2 Expression Level” value (skin; gene #35 of Table 8) was 6.50 and the “Log2 Expression Level” value (skin; gene #36 of Table 8) was 8.83. For the same molecule, the “Log2 Expression Level” value (skin; gene #37 of Table 8) was 8.83, the “Log2 Expression Level” value (skin; gene #38 of Table 8) was 8.83 and the “Log2 Expression Level” value (skin; gene #39 of Table 8) was 7.03. The “Log2 Expression Level” value (skin; gene #40 of Table 8) was 7.09, the “Log2 Expression Level” value (skin; gene #41 of Table 8) was 7.32 and the “Log2 Expression Level” value (skin; gene #42 of Table 8) was 6.91. For the same molecule, the “Log2 Expression Level” value (skin; gene #43 of Table 8) was 6.91, the “Log2 Expression Level” value (skin; gene #44 of Table 8) was 7.32 and the “Log2 Expression Level” value (skin; gene #45 of Table 8) was 6.91. The “Log2 Expression Level” value (skin; gene #46 of Table 8) was 7.32, the “Log2 Expression Level” value (skin; gene #47 of Table 8) was 8.08 and the “Log2 Expression Level” value (skin; gene #48 of Table 8) was 8.08. The “Log2 Expression Level” value (skin; gene #49 of Table 8) was 8.08, the “Log2 Expression Level” value (skin; gene #50 of Table 8) was 9.13 and the “Log2 Expression Level” value (skin; gene #51 of Table 8) was 7.49. For the same molecule, the “Log2 Expression Level” value (skin; gene #52 of Table 8) was 9.61, the “Log2 Expression Level” value (skin; gene #53 of Table 8) was 8.18 and the “Log2 Expression Level” value (skin; gene #54 of Table 8) was 9.63. The “Log2 Expression Level” value (skin; gene #55 of Table 8) was 6.47, the “Log2 Expression Level” value (skin; gene #56 of Table 8) was 9.09 and the “Log2 Expression Level” value (skin; gene #57 of Table 8) was 8.30. The “Log2 Expression Level” value (skin; gene #58 of Table 8) was 8.81, the “Log2 Expression Level” value (skin; gene #59 of Table 8) was 8.07 and the “Log2 Expression Level” value (skin; gene #60 of Table 8) was 6.96. The “Log2 Expression Level” value (skin; gene #61 of Table 8) was 11.13, the “Log2 Expression Level” value (skin; gene #62 of Table 8) was 7.95 and the “Log2 Expression Level” value (skin; gene #63 of Table 8) was 10.28. For the same molecule, the “Log2 Expression Level” value (skin; gene #64 of Table 8) was 10.44, the “Log2 Expression Level” value (skin; gene #65 of Table 8) was 6.81 and the “Log2 Expression Level” value (skin; gene #66 of Table 8) was 8.09. For the same molecule, the “Log2 Expression Level” value (skin; gene #67 of Table 8) was 4.20, the “Log2 Expression Level” value (skin; gene #68 of Table 8) was 7.36 and the “Log2 Expression Level” value (skin; gene #69 of Table 8) was 5.28. For the same molecule, the “Log2 Expression Level” value (skin; gene #70 of Table 8) was 3.86, the “Log2 Expression Level” value (skin; gene #71 of Table 8) was 7.42 and the “Log2 Expression Level” value (skin; gene #72 of Table 8) was 7.77. The “Log2 Expression Level” value (skin; gene #73 of Table 8) was 5.38, the “Log2 Expression Level” value (skin; gene #74 of Table 8) was 7.07 and the “Log2 Expression Level” value (skin; gene #75 of Table 8) was 8.29. The “Log2 Expression Level” value (skin; gene #76 of Table 8) was 4.15, the “Log2 Expression Level” value (skin; gene #77 of Table 8) was 8.59 and the “Log2 Expression Level” value (skin; gene #78 of Table 8) was 9.90. The “Log2 Expression Level” value (skin; gene #79 of Table 8) was 7.10, the “Log2 Expression Level” value (skin; gene #80 of Table 8) was 12.64 and the “Log2 Expression Level” value (skin; gene #81 of Table 8) was 5.57. For the same molecule, the “Log2 Expression Level” value (skin; gene #82 of Table 8) was 4.77, the “Log2 Expression Level” value (skin; gene #83 of Table 8) was 6.70 and the “Log2 Expression Level” value (skin; gene #84 of Table 8) was 6.49. For the same molecule, the “Log2 Expression Level” value (skin; gene #85 of Table 8) was 4.59, the “Log2 Expression Level” value (skin; gene #86 of Table 8) was 6.27 and the “Log2 Expression Level” value (skin; gene #87 of Table 8) was 8.57. For the same molecule, the “Log2 Expression Level” value (skin; gene #88 of Table 8) was 5.28, the “Log2 Expression Level” value (skin; gene #89 of Table 8) was 5.43 and the “Log2 Expression Level” value (skin; gene #90 of Table 8) was 9.55. For the same molecule, the “Log2 Expression Level” value (skin; gene #91 of Table 8) was 6.99, the “Log2 Expression Level” value (skin; gene #92 of Table 8) was 6.96 and the “Log2 Expression Level” value (skin; gene #93 of Table 8) was 8.40. The “Log2 Expression Level” value (skin; gene #94 of Table 8) was 7.22, the “Log2 Expression Level” value (skin; gene #95 of Table 8) was 5.77 and the “Log2 Expression Level” value (skin; gene #96 of Table 8) was 7.21. For the same molecule, the “Log2 Expression Level” value (skin; gene #97 of Table 8) was 5.27, the “Log2 Expression Level” value (skin; gene #98 of Table 8) was 4.12 and the “Log2 Expression Level” value (skin; gene #99 of Table 8) was 8.88. For the same molecule, the “Log2 Expression Level” value (skin; gene #100 of Table 8) was 6.73.
